The values below come from ChEMBL document CHEMBL4421728, “Bach1 Inhibitors in Combination with Nrf2 Activators and Pharmaceutical Compositions Thereof” (2017).

The target in experiment [1] is T1, Transcription regulator protein BACH1 (Homo sapiens) (UniProt O14867).
T1 sequence (whole entry): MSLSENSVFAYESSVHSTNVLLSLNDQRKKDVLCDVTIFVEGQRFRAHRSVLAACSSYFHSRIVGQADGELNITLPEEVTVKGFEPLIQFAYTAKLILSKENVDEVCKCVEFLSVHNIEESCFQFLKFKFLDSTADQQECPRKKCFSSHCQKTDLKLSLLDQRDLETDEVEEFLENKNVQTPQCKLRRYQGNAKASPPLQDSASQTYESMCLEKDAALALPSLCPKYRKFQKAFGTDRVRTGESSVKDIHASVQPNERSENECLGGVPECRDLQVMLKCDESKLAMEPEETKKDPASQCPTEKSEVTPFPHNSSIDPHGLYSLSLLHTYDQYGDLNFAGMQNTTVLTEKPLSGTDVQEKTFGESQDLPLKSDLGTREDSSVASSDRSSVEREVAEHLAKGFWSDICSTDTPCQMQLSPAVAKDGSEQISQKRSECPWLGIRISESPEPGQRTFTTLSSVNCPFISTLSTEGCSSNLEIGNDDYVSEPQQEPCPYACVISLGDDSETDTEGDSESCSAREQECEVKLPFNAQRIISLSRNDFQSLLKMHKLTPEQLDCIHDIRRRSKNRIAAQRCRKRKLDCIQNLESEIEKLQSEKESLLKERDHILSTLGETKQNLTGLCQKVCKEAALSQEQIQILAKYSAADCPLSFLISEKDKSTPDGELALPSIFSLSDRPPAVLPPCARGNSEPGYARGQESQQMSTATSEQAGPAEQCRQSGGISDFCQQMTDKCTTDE
Briefly: Inhibition of Bach1 in normal human lung fibroblasts assessed as induction of HMOX protein expression at 0.019 uM incubated for 16 to 18 hrs in presence of 0.019 uM Nrf2 activator Bardoxolone methyl by immunostaining relative to control.

Experiment [2] addresses T1, Transcription regulator protein BACH1 (Homo sapiens). Briefly: Inhibition of Bach1 in normal human lung fibroblasts assessed as induction of HMOX protein expression at 0.078 uM incubated for 16 to 18 hrs in presence of 0.078 uM Nrf2 activator Bardoxolone methyl by immunostaining relative to control.
For experiment [3] the target is unchanged. Put plainly: Inhibition of Bach1 in normal human lung fibroblasts assessed as induction of HMOX protein expression at 1.25 uM incubated for 16 to 18 hrs in presence of 0.039 uM Nrf2 activator Bardoxolone methyl by immunostaining relative to control.
Experiment [4] has the same target. Briefly: Inhibition of Bach1 in normal human lung fibroblasts assessed as induction of HMOX protein expression at 0.039 uM incubated for 16 to 18 hrs in presence of 0.0048 uM Nrf2 activator Bardoxolone methyl by immunostaining relative to control.
For experiment [5] the target is unchanged. Put plainly: Inhibition of Bach1 in normal human lung fibroblasts assessed as induction of HMOX protein expression at 0.156 uM incubated for 16 to 18 hrs in presence of 0.039 uM Nrf2 activator Bardoxolone methyl by immunostaining relative to control.
The target is the same in experiment [6]. Put plainly: Inhibition of Bach1 in normal human lung fibroblasts assessed as induction of HMOX protein expression at 0.078 uM incubated for 16 to 18 hrs in presence of 0.156 uM Nrf2 activator Bardoxolone methyl by immunostaining relative to control.
For experiment [7] the target is unchanged. Briefly: Inhibition of Bach1 in normal human lung fibroblasts assessed as induction of HMOX protein expression at 0.039 uM incubated for 16 to 18 hrs in presence of 0.019 uM Nrf2 activator Bardoxolone methyl by immunostaining relative to control.
Experiment [8] shares this target. Briefly: Inhibition of Bach1 in normal human lung fibroblasts assessed as induction of HMOX protein expression at 5 uM incubated for 16 to 18 hrs by immunostaining relative to control.
The target is the same in experiment [9]. Put plainly: Inhibition of Bach1 in normal human lung fibroblasts assessed as induction of HMOX protein expression at 2.5 uM incubated for 16 to 18 hrs in presence of 0.0048 uM Nrf2 activator Bardoxolone methyl by immunostaining relative to control.
The target is the same in experiment [10]. Briefly: Inhibition of Bach1 in normal human lung fibroblasts assessed as induction of HMOX protein expression at 0.312 uM incubated for 16 to 18 hrs in presence of 0.312 uM Nrf2 activator Bardoxolone methyl by immunostaining relative to control.
For experiment [11] the target is unchanged. Put plainly: Inhibition of Bach1 in normal human lung fibroblasts assessed as induction of HMOX protein expression at 1.25 uM incubated for 16 to 18 hrs in presence of 0.0097 uM Nrf2 activator Bardoxolone methyl by immunostaining relative to control.
Experiment [12] has the same target. Briefly: Inhibition of Bach1 in normal human lung fibroblasts assessed as induction of HMOX protein expression at 0.078 uM incubated for 16 to 18 hrs in presence of 0.312 uM Nrf2 activator Bardoxolone methyl by immunostaining relative to control.

Turning to `CNC(=O)c1ccc2c(c1)nc(Nc1nc3ccc(OC(F)(F)F)cc3s1)n2C`, the fold change (FC) in experiment [1] was determined as 10; in [2], 19.5; in [3], 15.6; in [4] it was 3.04; in experiment [5], 17.6; in experiment [6], 17.9. Also, the fold change (FC) was 8.57 in experiment [7]; 17.7 in experiment [8]; 19.5 in experiment [9]; 17.4 in experiment [10]; 16.5 in experiment [11]; 15.3 in [12].
